Inconclusive results are not listed. Activity calls are given as the source filed them. No rule for the calls is given here.
What follows are compounds tested on S. typhimurium/E. coli reverse mutation, colony counts (assay: Bacterial reverse mutation test (aka Ames test) summary data;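 also: His-minus Salmonella and trp-minus E. coli WP2 uvrA pKM101 with or without liver S9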).
Source text: The Ames test uses bacteria cultures to determine whether a substance causes mutations. Because there is a significant overlap between substances that are mutagens and those that are carcinogens, a quick and inexpensive mutagenicity test is useful as an initial screening for possible carcinogens.
The Ames test relies on specific strains of S. typhimurium, namely: TA97, TA98, TA100, TA102, TA104, TA1535, TA1537, and TA1538. In addition to the S. typhimurium strains, the test may also use the E. coli strain WP2 uvrA pKM101.
Each of the bacterial strains has a mutation that prevents it from making an amino acid (a protein building block) required for normal cell growth. The S. typhimurium strains are unable to manufacture histidine; the E. coli strain cannot manufacture tryptophan. The tester strains will not be able to grow without amino acid supplementation, unless the mutated gene is changed back to the correct DNA sequence (reversion mutation). Being exposed to a mutagenic chemical increases the chance that the mutant gene will be restored to the correct sequence, which allows the bacteria to grow and form colonies. Each substance under study is tested in a variety of bacterial strains with different types of altered DNA sequences in order to provide a comprehensive assessment of the mutagenic potential of the substance.
Some non-mutagenic substances are converted to mutagenic substances when metabolized by the liver; in contrast, some substances that are mutagenic in their natural state are converted to non-mutagens by the liver. All substances are tested in their natural state, as well as in the presence of liver enzymes that can produce this metabolic conversion of the test substance. Extracts of rat, hamster, or mouse liver enzymes (S9 mix) are used for this purpose.
D. Preparing the Cultures
Multiple sets of cultures are prepared using a range of doses and different amounts of liver enzymes for each bacterial strain. Each culture is prepared in a test tube containing a suspension of one bacterial strain and either an S9 mix or plain buffer solution. Then the test substance is added. Negative control cultures are established using the same ingredients, but without the test substance. Positive control cultures are established using known mutagens active in particular bacterial strains and metabolic conditions (for example, with or without S9). Once prepared, each culture is incubated for 20 minutes at 37° C. Agar is then added to the cultures, and the contents of each tube are poured onto the surface of a Petri dish that was prepared with standard bacterial culture medium. The plates are then incubated, usually for two days.
Depending on the substance to be tested, the exposure and incubation processes may be modified. These variations include:
- Elimination of the 20-minute incubation period in a test tube prior to plating (this method is referred to as the standard plate incorporation method)
- Enzymatic reduction of azo and diazo substances (this process occurs in the intestine or liver of animals) using a chemical called flavin mononucleotide (FMN) or intestinal bacterial preparations from rats
- Testing in sealed chambers such as desiccators for volatile and gaseous chemicals.
To validate the test, a trained investigator compares the number of colonies on the chemical-treated plates to the number of colonies on the negative control plates. If the substance under test is mutagenic, the chemical-treated plates will have a much greater number of colonies than the negative control plates.
- A positive response is a reproducible, dose-related increase in mutant colonies in any single strain, with or without the addition of S9 metabolic enzymes. While there is no minimum percentage of increase required for a result to be considered positive, a twofold increase in mutant colonies in a treated plate is usually considered to be a positive (mutagenic) response.
[…]
In the case of `O=C(/C=C/C=C/c1ccc2c(c1)OCO2)N1CCCCC1`, the outcome is reported as “inactive; negative”.
`CN(C)CCN(Cc1ccsc1)c1ccccn1` was tested, and the outcome was “inactive; negative”.
`S=[Se]` was tested, and the outcome was “active; positive”.
`CCCCCCCCn1sccc1=O` was tested, and the outcome was “inactive; negative”.
In the case of `ClCc1ccccc1`, the outcome is reported as “active; weakly positive”.
In the case of `CCCC(O)C(CC)CO` (centres undefined), the outcome is reported as “inactive; negative”.
For `NC(=O)N=NC(N)=O`, the outcome was “active; positive”.
`CCCCC=O` was tested, and the outcome was “inactive; negative”.
In the case of `c1cc(OCC2CO2)cc(OCC2CO2)c1` (centres undefined), the outcome is reported as “active; positive”.
`Cc1cccc(C#N)c1` was tested, and the outcome was “inactive; negative”.
`CN(C)c1ccc(C(=N)c2ccc(N(C)C)cc2)cc1` was tested, and the outcome was “active; positive”.
With `Clc1nc2ccccc2nc1Cl` the outcome was “inactive; negative”.
In the case of `CC(Cl)(Cl)Cl`, the outcome is reported as “inactive; negative”.
For `Nc1ccc(Cl)cc1N`, the outcome was “active; positive”.
In the case of `Cn1cnc([N+](=O)[O-])c1Sc1ncnc2nc[nH]c12`, the outcome is reported as “active; positive”.
`CCC(C)C` was tested, and the outcome was “inactive; negative”.
In the case of `Cc1ccc(N)cc1C`, the outcome is reported as “active; positive”.
`O=[N+]([O-])c1cccc(O)c1` was tested, and the outcome was “active; weakly positive”.
With `COc1cccc(N)c1` the outcome was “active; positive”.
With `O=C(O)C1C(C(=O)O)C2(Cl)C(Cl)=C(Cl)C1(Cl)C2(Cl)Cl` (centres undefined) the outcome was “inactive; negative”.
For `COC(=O)c1ccc(C=O)cc1`, the outcome was “inactive; negative”.
With `COc1cc([N+](=O)[O-])ccc1N` the outcome was “active; positive”.
With `c1ccc2c(c1)oc1ccccc12` the outcome was “inactive; negative”.
`CCN(Cc1cccc(S(=O)(=O)[O-])c1)c1ccc(C(=C2C=CC(=[N+](C)C)C=C2)c2ccc(N(CC)Cc3cccc(S(=O)(=O)O)c3)cc2)cc1` was tested, and the outcome was “active; positive”.
`C=CC(=O)O` was tested, and the outcome was “inactive; negative”.
For `N#C/C=C/C#N`, the outcome was “inactive; negative”.
In the case of `O=[N+]([O-])c1ccc2c3c(cccc13)CC2`, the outcome is reported as “active; positive”.
With `O=C(O)C(Br)Br` the outcome was “active; positive”.
For `Cc1nnc(NS(=O)(=O)c2ccc(N)cc2)s1`, the outcome was “inactive; negative”.
For `O=C1C2(Cl)C3(Cl)C4(Cl)C(Cl)(Cl)C5(Cl)C3(Cl)C1(Cl)C5(Cl)C24Cl` (centres undefined), the outcome was “inactive; negative”.
For `O=c1c2ccccc2c(=O)c2c1ccc1c2[nH]c2c3c(=O)c4ccccc4c(=O)c3c3[nH]c4c(ccc5c(=O)c6ccccc6c(=O)c54)c3c12`, the outcome was “inactive; negative”.
For `N#CC(Cl)(Cl)Cl`, the outcome was “active; weakly positive”.
`Nc1ccc2cc(S(=O)(=O)O)c(N=Nc3ccc(-c4ccc(N=Nc5c(S(=O)(=O)O)cc6cc(S(=O)(=O)O)cc(N)c6c5O)cc4)cc3)c(O)c2c1` was tested, and the outcome was “active; positive”.
`c1ccc(N=NNc2ccccc2)cc1` was tested, and the outcome was “active; positive”.
In the case of `N#[N+]c1ccc2c(S(=O)(=O)[O-])cccc2c1O`, the outcome is reported as “active; positive”.
With `Cc1ccc(N)cc1O` the outcome was “active; positive”.
For `ClCCl`, the outcome was “active; positive”.
For `O=[N+]([O-])C(Br)(Br)Br`, the outcome was “active; weakly positive”.
For `CC(C)=CCCC(C)=CC=O`, the outcome was “inactive; negative”.
For `CC(=O)C1(C)CC2=C(CCCC2(C)C)CC1C` (centres undefined), the outcome was “inactive; negative”.
`CC(C)CON=O` was tested, and the outcome was “active; positive”.
In the case of `O=C(O)C(Cl)Cl`, the outcome is reported as “active; positive”.
In the case of `OCCOCCO`, the outcome is reported as “inactive; negative”.
`C=CC(=O)OCCBr` was tested, and the outcome was “active; positive”.
`CCOS(C)(=O)=O` was tested, and the outcome was “active; positive”.
For `CCOC(=O)c1ccccc1C(=O)OCC`, the outcome was “inactive; negative”.
`[O]=[Mo](=[O])=[O]` was tested, and the outcome was “inactive; negative”.
`CCCN(CCC)C(=O)CN` was tested, and the outcome was “active; positive”.
`CCCCCNCCCCC` was tested, and the outcome was “inactive; negative”.
With `COCCOC(C)=O` the outcome was “active; weakly positive”.
In the case of `[Cd+2].[Cl-].[Cl-]`, the outcome is reported as “inactive; negative”.
For `CC12CCC(CC1)C(C)(C)O2`, the outcome was “inactive; negative”.
In the case of `O=P(Oc1ccccc1)(Oc1ccccc1)Oc1ccccc1`, the outcome is reported as “inactive; negative”.
With `c1ccc(P(c2ccccc2)c2ccccc2)cc1` the outcome was “inactive; negative”.

— PubChem BioAssay AID2202554 (NIEHS Division of Translational Toxicology (DTT))
